Reference: PubChem BioAssay AID651650 (Sanford-Burnham Center for Chemical Genomics, 2012)
Active and inactive are the calls of the source.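 Rule for the calls: active = mean IC50 below 20 µM in each of the two panels, so potent in both; inactive = the rest.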

Target: Neuropilin-1 (Homo sapiens) (UniProt O14786)
Assay: blockers of CendR peptide binding to NRP-1 – biochemical, FP and AlphaScreen panel, dose response (AID 651650)
Settings: NRP-1 b1b2 / RPARPAR peptide binding, FP or AlphaScreen
[1] = AlphaScreen, run 1, individual panel run IC50
[2] = FP, run 1, individual panel run IC50
[3] = FP, run 2, individual panel run IC50

Neuropilin-1 (Homo sapiens), sequence (O14786 whole entry, looked up): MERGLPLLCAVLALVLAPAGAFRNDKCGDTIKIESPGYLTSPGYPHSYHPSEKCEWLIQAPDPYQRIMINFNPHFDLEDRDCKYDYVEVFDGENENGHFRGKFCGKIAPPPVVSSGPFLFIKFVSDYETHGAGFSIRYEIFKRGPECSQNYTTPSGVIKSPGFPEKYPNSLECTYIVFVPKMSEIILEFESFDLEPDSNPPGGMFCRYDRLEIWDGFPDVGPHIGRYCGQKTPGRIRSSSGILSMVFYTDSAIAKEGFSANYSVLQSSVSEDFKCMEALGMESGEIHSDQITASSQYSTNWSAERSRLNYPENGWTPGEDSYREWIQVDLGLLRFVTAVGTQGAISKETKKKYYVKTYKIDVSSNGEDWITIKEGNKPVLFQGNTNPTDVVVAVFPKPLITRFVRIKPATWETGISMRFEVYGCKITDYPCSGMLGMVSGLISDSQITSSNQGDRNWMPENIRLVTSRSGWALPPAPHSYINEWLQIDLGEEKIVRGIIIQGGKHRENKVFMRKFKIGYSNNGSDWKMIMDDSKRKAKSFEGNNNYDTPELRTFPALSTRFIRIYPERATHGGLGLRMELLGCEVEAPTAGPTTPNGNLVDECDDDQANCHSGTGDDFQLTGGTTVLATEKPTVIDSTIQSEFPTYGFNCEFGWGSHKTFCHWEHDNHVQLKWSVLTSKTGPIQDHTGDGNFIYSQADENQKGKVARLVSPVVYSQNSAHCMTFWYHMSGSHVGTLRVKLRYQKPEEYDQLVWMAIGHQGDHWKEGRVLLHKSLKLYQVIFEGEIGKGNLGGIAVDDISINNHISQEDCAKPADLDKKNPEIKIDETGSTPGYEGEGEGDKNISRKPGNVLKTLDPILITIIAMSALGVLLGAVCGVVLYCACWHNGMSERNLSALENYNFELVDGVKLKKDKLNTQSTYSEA

Row | IC50 (AlphaScreen, mean of runs) | IC50 [1] | IC50 (FP, mean of runs) | IC50 [2] | IC50 [3] | SMILES
1 | > 100 µM (inactive) | > 100 µM | > 95 µM (inactive) | > 95 µM | > 95 µM | O=C(O)c1ccccc1SCC(=O)N1CCCCC1
2 | > 100 µM (inactive) | > 100 µM | > 95 µM (inactive) | > 95 µM | > 95 µM | O=C(CSc1nc2ccc(Cl)cc2[nH]1)NCCc1ccccc1
3 | inactive | 41 µM | > 95 µM (inactive) | > 95 µM | > 95 µM | Cc1ccc(S(=O)(=O)N2[C@@H](c3ccc(Cl)cc3)C(C(=O)OC(C)(C)C)=CC[C@H]2c2ccc(Cl)c(Cl)c2)cc1
4 | > 100 µM (inactive) | > 100 µM | > 95 µM (inactive) | > 95 µM | > 95 µM | O=C(O)CCSc1nnc(COc2cccc3cccnc23)n1-c1ccccc1
5 | > 100 µM (inactive) | > 100 µM | > 95 µM (inactive) | > 95 µM | > 95 µM | CCCCN(c1ccccc1)S(=O)(=O)c1ccc2c(c1)CCN2C(=O)CCC(=O)O
6 | > 100 µM (inactive) | > 100 µM | > 95 µM (inactive) | > 95 µM | > 95 µM | C=CCNC(=O)c1onc(CSc2ccc(F)c(F)c2)c1C(=O)NCC=C
7 | > 100 µM (inactive) | > 100 µM | > 95 µM (inactive) | > 95 µM | > 95 µM | Cc1cccc(-c2noc(CSc3ccccc3)n2)c1
8 | > 100 µM (inactive) | > 100 µM | > 95 µM (inactive) | > 95 µM | > 95 µM | COC(=O)c1cccc(NC(=S)NCCC2=CCCCC2)c1
9 | inactive | 57.6 µM | > 95 µM (inactive) | > 95 µM | > 95 µM | CC(=O)Nc1ccc2nc3c(=O)n(C)c(=O)n(C)c3nc2c1
10 | > 100 µM (inactive) | > 100 µM | inactive | 39.7 µM | 36.3 µM | Cc1ccc(-n2c(-c3ccco3)nc3c(cnn3-c3ccc(C)cc3)c2=O)cc1
11 | > 100 µM (inactive) | > 100 µM | > 95 µM (inactive) | > 95 µM | > 95 µM | COc1ccc([C@H]2/C=C\CN(S(C)(=O)=O)[C@@H](C)C(=O)N2Cc2ccc(F)cc2)cc1
12 | > 100 µM (inactive) | > 100 µM | > 95 µM (inactive) | > 95 µM | > 95 µM | O=C(NNC(=O)C1CCN(c2ncccn2)CC1)c1ccc(F)cc1
13 | > 100 µM (inactive) | > 100 µM | > 95 µM (inactive) | > 95 µM | > 95 µM | c1cc(CNc2ccc3c(c2)OCO3)ccn1
14 | > 100 µM (inactive) | > 100 µM | > 95 µM (inactive) | > 95 µM | > 95 µM | N#CC(C#N)=Cc1cc2ccccc2nc1N1CCCCC1
15 | > 100 µM (inactive) | > 100 µM | > 95 µM (inactive) | > 95 µM | > 95 µM | Cc1cccc(N(CC(=O)NC2CCCC2)C(=O)CS(=O)CC(=O)Nc2ccc3c(c2)OCO3)c1C (stereo not given)
16 | > 100 µM (inactive) | > 100 µM | > 95 µM (inactive) | > 95 µM | > 95 µM | Cc1cc2c(=O)[nH]cnc2s1
17 | > 100 µM (inactive) | > 100 µM | > 95 µM (inactive) | > 95 µM | > 95 µM | COc1cccc(N2[C@@H](CC(C)=O)c3ccc(/C=C/C(C)=O)cc3S2(=O)=O)c1
18 | > 100 µM (inactive) | > 100 µM | > 95 µM (inactive) | > 95 µM | > 95 µM | Fc1cc(Cl)ccc1Nc1nc(NCc2ccccc2)nc2ccsc12
19 | > 100 µM (inactive) | > 100 µM | > 95 µM (inactive) | > 95 µM | > 95 µM | NC(=O)CC[C@H](NC(=O)c1ccc(F)cc1)C(=O)N1CCN(Cc2ccc3c(c2)OCO3)CC1
20 | > 100 µM (inactive) | > 100 µM | > 95 µM (inactive) | > 95 µM | > 95 µM | Cn1cccc1C1Nc2ccccc2NC2=C1C(=O)CC(C)(C)C2 (stereo not given)
21 | 10.4 µM | 10.4 µM | 19.9 µM | 17.9 µM | 21.8 µM | CCOC(=O)c1cnc(-c2ccccc2)nc1Oc1ccc(OC)cc1
22 | > 100 µM (inactive) | > 100 µM | > 95 µM (inactive) | > 95 µM | > 95 µM | C=C1CCN([C@@H](CC(C)C)C(=O)NCc2ccccc2)S(=O)(=O)c2ccccc21
23 | > 100 µM (inactive) | > 100 µM | > 95 µM (inactive) | > 95 µM | > 95 µM | CNC(=O)Nc1ccccc1C(=O)NCc1ccccc1
